Measurements published in publication PMC6920847, “2-Hydroxy-N-phenylbenzamides and Their Esters Inhibit Acetylcholinesterase and Butyrylcholinesterase” (Biomolecules, 2019).
Where “and” joins values, the source holds several entries; their conditions need not be identical. Equal values may be shown once. Entries after “also recorded” stand apart in the source; their conditions may differ. Read-outs that look alike come from different tables or passages of the source.

Legend:
[1] = molecular target: T1, BuChE from equine serum (EqBuChE) (Equus caballus, UniProt P81908); experiment: Inhibition of BuChE, modified Ellman's spectrophotometric method; assay type: biochemical; settings: for Enhancement of BuChE inhibition compared to parent 3k: ratio of IC50 values vs parent 3k
T1 construct: butyrylcholinesterase was from an equine serum; purchased Sigma-Aldrich (Prague, Czech Republic); host or cells: equine serum (natural source)
T1 sequence (P81908 whole entry): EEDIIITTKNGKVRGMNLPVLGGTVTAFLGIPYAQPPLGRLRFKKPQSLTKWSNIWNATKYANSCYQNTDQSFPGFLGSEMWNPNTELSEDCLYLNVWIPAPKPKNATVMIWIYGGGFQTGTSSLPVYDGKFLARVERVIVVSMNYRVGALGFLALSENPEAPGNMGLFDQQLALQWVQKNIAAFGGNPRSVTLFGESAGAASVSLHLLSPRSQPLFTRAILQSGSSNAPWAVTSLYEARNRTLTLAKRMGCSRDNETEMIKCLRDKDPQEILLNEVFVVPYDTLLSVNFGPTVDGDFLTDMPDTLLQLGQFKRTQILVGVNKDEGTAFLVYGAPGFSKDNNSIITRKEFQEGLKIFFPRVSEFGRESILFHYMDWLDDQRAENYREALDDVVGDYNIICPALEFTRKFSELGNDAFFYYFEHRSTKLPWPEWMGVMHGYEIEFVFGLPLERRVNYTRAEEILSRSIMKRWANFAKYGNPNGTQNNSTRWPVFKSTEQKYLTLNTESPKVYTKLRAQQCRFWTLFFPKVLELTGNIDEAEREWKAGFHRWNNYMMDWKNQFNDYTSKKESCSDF
Procedure: (§1) The IC50 values were determined using the spectrophotometric Ellman’s method modified according to Zdražilová et al., which is a simple, rapid and direct method to determine the SH and -S-S- group content in proteins. This method is widely used for the screening of the efficiency of cholinesterases inhibitors. The enzymatic activity is measured indirectly by quantifying the concentration of the 5-thio-2-nitrobenzoic acid ion formed in the reaction between the thiol reagent 5,5′-dithio-bis(2-nitrobenzoic acid) and thiocholine, a product of substrate hydrolysis (i.e., acetylthiocholine; ATCH) by cholinesterases.
(§2) The enzyme activity in final reaction mixture (2000 µL) was 0.2 U/mL, concentration of acetylthiocholine (or butyrylthiocholine, BTCH) 40 µM and concentration of 5,5′-dithio-bis(2-nitrobenzoic acid) 0.1 mM for all reactions. The tested compounds were dissolved in DMSO and then diluted in demineralized water to the concentration of 1 µM. […] All measurements were carried in triplicate and the average values of reaction rate (v0-uninhibited reaction, vi-inhibited reaction) were used for construction of the dependence v0/vi vs. concentration of inhibitor. From obtained equation of regression curve, the value of IC50 was calculated (based on the definition of IC50).
(§3) Acetylcholinesterase was obtained from electric eel (Electrophorus electricus L.) and butyrylcholinesterase was from an equine serum.
(§4) Thirty-six benzamides 1–4l were evaluated as potential inhibitors of AChE from electric eel (EeAChE) and BuChE from equine serum (EqBuChE) using Ellman’s spectrophotometric method modified according to Zdražilová et al.. Their efficacy is expressed as IC50, i.e., the concentration required for 50% inhibition of the enzymatic activity. Based on inhibition of both cholinesterases, we calculated selectivity indexes (SI) as the ratio of IC50 value for AChE/IC50 value for BuChE to express the selectivity quantitatively (Table 1).

[2] = molecular target: T2, AChE from electric eel (EeAChE) (Electrophorus electricus, UniProt O42275); settings: SI = IC50 for AChE/IC50 for BuChE; cited from earlier work
T2 construct: Acetylcholinesterase was obtained from electric eel (Electrophorus electricus L.); purchased Sigma-Aldrich (Prague, Czech Republic); host or cells: electric eel (natural source)
T2 sequence (O42275 24-633): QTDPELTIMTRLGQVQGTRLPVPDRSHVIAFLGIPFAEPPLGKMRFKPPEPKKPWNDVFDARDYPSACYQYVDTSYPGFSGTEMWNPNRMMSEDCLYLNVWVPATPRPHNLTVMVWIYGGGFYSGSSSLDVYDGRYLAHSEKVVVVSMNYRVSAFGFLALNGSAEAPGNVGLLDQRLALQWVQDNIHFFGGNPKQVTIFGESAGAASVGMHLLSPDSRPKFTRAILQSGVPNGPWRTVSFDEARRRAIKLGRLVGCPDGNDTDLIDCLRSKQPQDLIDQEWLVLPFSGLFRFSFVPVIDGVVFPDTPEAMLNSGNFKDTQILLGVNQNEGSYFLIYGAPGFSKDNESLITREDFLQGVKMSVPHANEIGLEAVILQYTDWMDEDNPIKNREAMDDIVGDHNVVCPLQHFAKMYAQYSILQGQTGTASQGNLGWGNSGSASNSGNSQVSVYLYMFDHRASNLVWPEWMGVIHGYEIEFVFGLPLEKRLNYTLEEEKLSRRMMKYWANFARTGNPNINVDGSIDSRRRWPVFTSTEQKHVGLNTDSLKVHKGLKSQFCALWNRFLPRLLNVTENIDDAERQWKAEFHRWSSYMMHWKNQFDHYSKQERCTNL

[3] = molecular target: T1, BuChE from equine serum (EqBuChE); settings: mean ± SD; cited from earlier work
[4] = molecular target: T2, AChE from electric eel (EeAChE); experiment: Inhibition of AChE, modified Ellman's spectrophotometric method; assay type: biochemical, electric eel (Electrophorus electricus L.)
Procedure: as §1, §2, §3, §4

[5] = molecular target: T3, acetylcholinesterase (Electrophorus electricus, UniProt O42275); experiment: Mechanism of inhibition, dependence log% A vs. time; assay type: biochemical, electric eel (Electrophorus electricus L.); settings: inhibitor 10, 30, 90 µM; prolonged incubation
T3 construct: Acetylcholinesterase was obtained from electric eel (Electrophorus electricus L.); purchased Sigma-Aldrich (Prague, Czech Republic); host or cells: electric eel (natural source)
T3 sequence (O42275 24-633): as above
Procedure: (§5) The determination of mechanism of enzyme inhibition was described in detail previously. The inhibitor 5c was evaluated at three different concentrations for each enzyme.
(§6) Based on the changes of enzyme activity in the presence of tested inhibitor during prolonged incubation, it is possible to distinguish reversible, pseudo-irreversible and irreversible inhibition. In the case of reversible inhibition, the inhibitor is bound to the enzyme for a short period of time, the activity of the enzyme goes down immediately and, after dissociation of complex enzyme-inhibitor, the enzyme activity is restored. […] For irreversible inhibition, covalent and permanent bond between enzyme and inhibitor is typical and therefore the enzyme becomes inactivated. Irreversible inhibitor decreases enzyme activity successively and the dependence log% A vs. time in the presence of inhibitor is linear.
(§7) The procedure of measurement and data evaluation were in detail described previously in the reference. From the dependence log% A vs. time the mechanism of action of tested inhibitor can be deduced.
Figure 1 The dependence log% A vs. time. Enzyme: acetylcholinesterase, derivative 5c, concentration of inhibitor: 10 µM (rhomb), 30 µM (square), 90 µM (triangle).

[6] = molecular target: T4, butyrylcholinesterase (Equus caballus, UniProt P81908); experiment: as above; assay type: biochemical, equine; settings: inhibitor 3, 6, 9 µM; prolonged incubation
T4 construct: butyrylcholinesterase was from an equine serum; purchased Sigma-Aldrich (Prague, Czech Republic); host or cells: equine serum (natural source)
T4 sequence (P81908 whole entry): as the sequence (P81908 whole entry) above
Procedure: as §5, §6, §7
Figure 2 The dependence log% A vs. time. Enzyme: butyrylcholinesterase, derivative 5c, concentration of inhibitor: 3 µM (rhomb), 6 µM (square), 9 µM (triangle).

[7] = molecular target: T5, AChE (Electrophorus electricus, UniProt O42275); experiment: Type of inhibition, Lineweaver-Burk plot; assay type: biochemical, electric eel (Electrophorus electricus L.); settings: ATCH 20–80 µM
T5 construct: Acetylcholinesterase was obtained from electric eel (Electrophorus electricus L.); purchased Sigma-Aldrich (Prague, Czech Republic); host or cells: electric eel (natural source)
T5 sequence (O42275 24-633): as the sequence (O42275 24-633) above
Procedure: (§8) For the determination of the type of inhibition Lineweaver-Burk plot was used and the measuring procedure was similar to that for the determination of IC50 (modified Ellman’s method was used). The enzyme activity in the final reaction mixture (2000 µL) was 0.2 U/mL, a concentration of ATCH or BTCH 20–80 µM and a concentration of 5,5′-dithio-bis(2-nitrobenzoic acid) 0.1 mM. For each of the substrate concentrations, four different concentrations of inhibitor were chosen. The dependence absorbance vs. time was observed and the reaction rate was calculated. All measurements were carried in duplicate and the average values of reaction rate were used for the construction of the Lineweaver-Burk plot. From obtained equations of regression curves, the values of KM (Michaelis constant) and Vm (maximum velocity) were calculated and the type of inhibition was evaluated.
(§9) The type of inhibition could be distinguished based on the Lineweaver-Burk plot and the comparison of the kinetic parameters KM and Vm of uninhibited and inhibited reactions. The diagnostic criterion for competitive inhibition is that Vm is unaffected by inhibitor and KM for inhibited reaction is increased. All lines in Lineweaver-Burk plot share a common y-intercept. For non-competitive inhibitor KM is unchanged, but Vm of inhibited reaction is decreased. All lines in Lineweaver-Burk plot share a common x-intercept. […]

[8] = molecular target: T6, BuChE (Equus caballus, UniProt P81908); experiment: Type of inhibition, Lineweaver-Burk plot; assay type: biochemical, equine; settings: BTCH 20–80 µM
T6 construct: butyrylcholinesterase was from an equine serum; purchased Sigma-Aldrich (Prague, Czech Republic); host or cells: equine serum (natural source)
T6 sequence (P81908 whole entry): as the sequence (P81908 whole entry) above
Procedure: as §8, §9

Structure (SMILES) | Enhancement of BuChE inhibition compared to parent 3k [1] | Selectivity AChE/BuChE [2] | IC50 [3] [µM] | Selectivity AChE/BuChE ([4]; SI = IC50 for AChE/IC50 for BuChE, SI lower than 1 means selectivity for AChE) | IC50 ([4]; mean ± SD, n = three experiments, read-out: IC50 (EeAChE)) [µM] | IC50 ([1]; mean ± SD, n = three experiments, read-out: IC50 (EqBuChE)) | Improvement of activity against BuChE compared to phosphate 5a ([1]; phosphite 5c vs phosphate 5a) [times] | Mechanism of inhibition (AChE) [5] | Mechanism of inhibition (BuChE) [6] | Type of inhibition (AChE) [7] | Type of inhibition (BuChE) [8]
CCOP(=O)(OCC)Oc1cc(Cl)ccc1C(=O)Nc1ccc(C(F)(F)F)cc1 [Compound 5a] | up to 20.3 times | 8.77 | 9.84 ± 0.06 | – | – | – | – | – | – | – | –
CCOP(OCC)Oc1cc(Cl)ccc1C(=O)Nc1ccc(C(F)(F)F)cc1 [Compound 5c, 5-Chloro-2-{[4-(trifluoromethyl)phenyl]carbamoyl}phenyl diethyl phosphite] | 84.2 times | – | – | 28.00 | 66.4 ± 1.14 | 2.4 µM and 2.37 µM | 4.2 | pseudo-irreversible inhibitor; also recorded: pseudo-irreversible inhibition | pseudo-irreversible inhibitor; also recorded: pseudo-irreversible inhibition | mixed inhibition; also recorded: mixed inhibitory mechanism | mixed inhibition; also recorded: mixed inhibitory mechanism
